Source: US6552080B1, “Fungicidal compounds having a fluorovinyl-or fluoropropenyl-oxyphenyloxime moiety and process for the preparation thereof” (Korea Research Institute of Chemical Technology, priority 1999, dated 2003)
Where two headings read alike, the source gives them in different places.

What was measured:
[1] = tested on: Phytophthora infestans; format: in vivo; conditions: Tomato Late Blight
[2] = tested on: Rhizoctonia solani AG-1; assay: Fungicidal activity against Rice Sheath Blight (RSB) disease; conditions: Rice Sheath Blight
[3] = tested on: Erysiphae graminis; assay: Fungicidal activity against Barley Powdery Mildew (BPM) disease; format: in vivo; conditions: Barley Powdery Mildew
[4] = tested on: Botrytis cinerae; assay: Fungicidal activity against Cucumber Gray Mold Rot (CGM) disease; format: in vivo; conditions: Cucumber Gray Mold Rot; concentration 50 ppm
Method: Botrytis cinerae, which was isolated from cucumber infected thereby, was inoculated on a PDA agar medium and cultured under a 12L/12D cycle at 25° C. for 15 days to form spore. The spores were scraped, filtered through a gauze and then suspended in potato dextrose liquid medium at a concentration of 1×10^6 spore/ml. The spore suspension was sprayed on a cucumber plant having one leaf. The cucumber plant was held in a humidified room at 20° C. for 3 days. L.A. on a leaf was measured to calculate an C.V.

[5] = tested on: Pyricularia oryzae Carvara KA301; format: in vivo; conditions: Rice Blast
[6] = tested on: Puccinia recondita; assay: Fungicidal activity against Wheat Leaf Rust (WLR) disease; format: in vivo; conditions: Wheat Leaf Rust

Row | Compound | TLB (Fungicidal Activities, C.V.) ([1]; concentration 50 ppm) | RSB (Fungicidal Activities, C.V.) ([2]; concentration 50 ppm) | BPM (Fungicidal Activities, C.V.) ([3]; concentration 50 ppm) | CGM (Fungicidal Activities, C.V.) [4] | RCV (Fungicidal Activities, C.V.) ([5]; concentration 50 ppm) | WLR (Fungicidal Activities, C.V.) ([6]; concentration 50 ppm) | TLB (Fungicidal Activities, C.V.) ([1]; concentration 2 ppm) | RSB (Fungicidal Activities, C.V.) ([2]; concentration 2 ppm) | BPM (Fungicidal Activities, C.V.) ([3]; concentration 2 ppm) | RCV (Fungicidal Activities, C.V.) ([5]; concentration 2 ppm) | WLR (Fungicidal Activities, C.V.) ([6]; concentration 2 ppm) | TLB (Fungicidal Activities, C.V.) ([1]; concentration 10 ppm) | RSB (Fungicidal Activities, C.V.) ([2]; concentration 10 ppm) | BPM (Fungicidal Activities, C.V.) ([3]; concentration 10 ppm) | RCV (Fungicidal Activities, C.V.) ([5]; concentration 10 ppm) | WLR (Fungicidal Activities, C.V.) ([6]; concentration 10 ppm)
1 | CON=C(C(=O)OC)c1ccccc1CON=Cc1cccc(OC(F)=Cc2ccc(F)cc2)c1 [Compound 27] | 69% | 25% | 91% | 0% | 100% | 86% |  |  |  |  |  |  |  |  |  | 
2 | CON=C(C(=O)OC)c1ccccc1CON=Cc1cccc(OC(F)=Cc2ccc(Cl)cc2)c1 [Compound 28] | 38% | 50% | 95% | 9% | 99% | 100% | 50% | 0% | 86% | 66% | 97% |  |  |  |  | 
3 | CON=C(C(=O)OC)c1ccccc1CON=Cc1cccc(OC(F)=Cc2ccc3c(c2)OCO3)c1 [Compound 29] | 84% | 35% | 80% | 0% | 100% | 88% | 78% | 20% | 41% | 93% | 96% |  |  |  |  | 
4 | CNC(=O)C(=NOC)c1ccccc1CON=Cc1cccc(OC(F)=Cc2cccc(C)c2)c1 [Compound 31] | 8% | 52% | 100% | 25% | 100% | 100% |  |  | 8% | 97% | 83% |  |  |  |  | 
5 | CNC(=O)C(=NOC)c1ccccc1CON=Cc1cccc(OC(F)=Cc2ccc(C)c(C)c2)c1 [Compound 32] | 0% | 41% | 100% | 8% | 100% | 99% |  |  | 0% | 99% | 3% |  |  |  |  | 
6 | CCc1ccc(C=C(F)Oc2cccc(C=NOCc3ccccc3C(=NOC)C(=O)NC)c2)cc1 [Compound 33] | 0% | 17% | 100% | 0% | 96% | 96% |  |  | 0% | 97% | 10% |  |  |  |  | 
7 | CNC(=O)C(=NOC)c1ccccc1CON=Cc1cccc(OC(F)=Cc2cccc(OC)c2)c1 [Compound 35] | 0% | 52% | 100% | 0% | 100% | 97% |  |  | 0% | 97% | 83% |  |  |  |  | 
8 | CCOc1ccc(C=C(F)Oc2cccc(C=NOCc3ccccc3C(=NOC)C(=O)NC)c2)cc1 [Compound 36] | 0% | 0% | 100% | 0% | 100% | 93% |  |  | 0% | 88% | 0% |  |  |  |  | 
9 | CNC(=O)C(=NOC)c1ccccc1CON=Cc1cccc(OC(F)=Cc2ccc(F)cc2)c1 [Compound 37] | 0% | 29% | 100% | 0% | 100% | 98% |  |  | 42% | 98% | 37% |  |  |  |  | 
10 | CNC(=O)C(=NOC)c1ccccc1CON=Cc1cccc(OC(F)=Cc2cccc(Cl)c2)c1 [Compound 38] | 0% | 64% | 100% | 0% | 100% | 100% |  |  | 87% | 97% | 99% |  |  |  |  | 
11 | CNC(=O)C(=NOC)c1ccccc1CON=Cc1cccc(OC(F)=Cc2ccc3c(c2)OCO3)c1 [Compound 39] | 83% | 58% | 100% | 0% | 100% | 100% |  |  | 0% | 93% | 0% |  |  |  |  | 
12 | CO/C=C(/C(=O)OC)c1ccccc1CON=C(C)c1cccc(OC(F)=Cc2ccccc2)c1 [Compound 40, Methyl (2E)-3-Methoxy-2-{2′-[[[3″-(1′″-fluoro-2′″-phenyl-1′″-ethenyloxy)phenyl]methylimino]oxy]methylphenyl}propenoate] | 97% | 95% | 100% | 75% | 100% | 100% | 12% | 70% | 100% | 99% | 99% | 68% | 75% | 100% | 100% | 100%
13 | COC=C(C(=O)OC)c1ccccc1CON=C(C)c1cccc(OC(F)=Cc2cccc(C)c2)c1 [Compound 41] | 96% | 95% | 100% | 51% | 100% | 100% | 6% | 55% | 100% | 98% | 99% | 25% | 70% | 100% | 100% | 100%
14 | COC=C(C(=O)OC)c1ccccc1CON=C(C)c1cccc(OC(F)=Cc2ccc(C)cc2)c1 [Compound 42] | 97% | 70% | 100% | 64% | 100% | 100% |  |  | 100% | 58% | 98% |  |  | 100% | 96% | 100%
15 | COC=C(C(=O)OC)c1ccccc1CON=C(C)c1cccc(OC(F)=Cc2cc(C)cc(C)c2)c1 [Compound 44] | 71% | 75% | 100% | 5% | 100% | 100% |  |  | 100% | 85% | 96% |  |  | 100% | 95% | 100%
16 | CCc1ccc(C=C(F)Oc2cccc(C(C)=NOCc3ccccc3C(=COC)C(=O)OC)c2)cc1 [Compound 45] | 85% | 65% | 100% | 17% | 97% | 100% |  |  | 99% | 41% | 95% |  |  | 100% | 93% | 100%
17 | COC=C(C(=O)OC)c1ccccc1CON=C(C)c1cccc(OC(F)=Cc2ccc(OC)cc2)c1 [Compound 48] | 95% | 75% | 100% | 64% | 100% | 100% |  |  | 100% | 41% | 99% |  |  | 100% | 96% | 100%
